Measurements taken from ChEMBL document CHEMBL1909046, “DrugMatrix in vitro pharmacology data”.

Key:
[1] = target: 5-hydroxytryptamine receptor 2B (Homo sapiens, UniProt P41595); assay type: cell membranes, CHO-K1, Membrane; settings: cho-k1; note: in other assays of this panel Not Active means under 50% inhibition at 10 µM
[2] = DRUGMATRIX: Glutamate, Kainate radioligand binding (ligand: [3H] Kainic acid); assay type: cell membranes, Rattus norvegicus, Wistar, Brain, Membrane; settings: Not Active = under 50% inhibition at 10 µM
[3] = DRUGMATRIX: Glutamate, AMPA radioligand binding (ligand: [3H] AMPA); assay type: cell membranes, Rattus norvegicus, Wistar, Cerebral cortex, Membrane; settings: Not Active = under 50% inhibition at 10 µM
[4] = target: C-C chemokine receptor type 2 (Homo sapiens, UniProt P41597); assay type: cell membranes, CHO-K1, Membrane; settings: cho-k1; note: in other assays of this panel Not Active means under 50% inhibition at 10 µM
[5] = target: T1, 3-hydroxy-3-methylglutaryl-coenzyme A reductase (Homo sapiens, UniProt P04035); design: species or system Escherichia coli;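 note: enzyme inhibition assay of HMG-CoA reductase using radiolabeled [14C]HMG-CoA as substrate; in other assays of this panel Not Active means under 50% inhibition at 10 µM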
T1 sequence (P04035 whole entry): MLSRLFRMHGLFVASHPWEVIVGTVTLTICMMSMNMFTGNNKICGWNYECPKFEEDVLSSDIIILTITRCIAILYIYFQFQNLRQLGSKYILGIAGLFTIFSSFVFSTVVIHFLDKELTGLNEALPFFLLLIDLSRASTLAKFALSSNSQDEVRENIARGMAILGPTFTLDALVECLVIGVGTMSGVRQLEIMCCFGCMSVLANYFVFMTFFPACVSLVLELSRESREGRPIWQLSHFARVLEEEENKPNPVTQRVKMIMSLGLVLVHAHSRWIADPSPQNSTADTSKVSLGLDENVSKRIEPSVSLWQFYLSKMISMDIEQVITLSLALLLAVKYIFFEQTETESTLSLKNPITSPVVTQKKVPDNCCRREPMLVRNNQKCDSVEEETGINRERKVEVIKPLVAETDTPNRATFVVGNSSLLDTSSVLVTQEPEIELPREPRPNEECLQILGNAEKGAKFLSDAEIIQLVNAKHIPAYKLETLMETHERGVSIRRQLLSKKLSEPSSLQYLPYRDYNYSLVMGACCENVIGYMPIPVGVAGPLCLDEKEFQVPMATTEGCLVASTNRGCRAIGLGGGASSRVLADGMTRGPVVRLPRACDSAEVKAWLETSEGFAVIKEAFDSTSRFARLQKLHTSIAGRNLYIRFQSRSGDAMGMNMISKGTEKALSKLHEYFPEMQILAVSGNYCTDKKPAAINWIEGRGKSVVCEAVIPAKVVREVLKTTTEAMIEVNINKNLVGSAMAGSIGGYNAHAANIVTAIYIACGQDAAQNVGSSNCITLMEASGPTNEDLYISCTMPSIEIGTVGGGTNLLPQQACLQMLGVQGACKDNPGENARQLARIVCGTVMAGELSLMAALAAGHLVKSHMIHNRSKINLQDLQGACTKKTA

[6] = DRUGMATRIX: GABAA, Flunitrazepam, Central radioligand binding (ligand: [3H] Flunitrazepam); assay type: cell membranes, Rattus norvegicus, Wistar, Brain, Membrane; settings: Not Active = under 50% inhibition at 10 µM
[7] = DRUGMATRIX: Atrial Natriuretic Factor (ANF) radioligand binding (ligand: [125I] ANF (rat)); assay type: cell membranes, Cavia porcellus, Dunkin-Hartley, Adrenal gland, Membrane; settings: Not Active = under 50% inhibition at 10 µM

Chain of 5-hydroxytryptamine receptor 2B (P41595 whole entry): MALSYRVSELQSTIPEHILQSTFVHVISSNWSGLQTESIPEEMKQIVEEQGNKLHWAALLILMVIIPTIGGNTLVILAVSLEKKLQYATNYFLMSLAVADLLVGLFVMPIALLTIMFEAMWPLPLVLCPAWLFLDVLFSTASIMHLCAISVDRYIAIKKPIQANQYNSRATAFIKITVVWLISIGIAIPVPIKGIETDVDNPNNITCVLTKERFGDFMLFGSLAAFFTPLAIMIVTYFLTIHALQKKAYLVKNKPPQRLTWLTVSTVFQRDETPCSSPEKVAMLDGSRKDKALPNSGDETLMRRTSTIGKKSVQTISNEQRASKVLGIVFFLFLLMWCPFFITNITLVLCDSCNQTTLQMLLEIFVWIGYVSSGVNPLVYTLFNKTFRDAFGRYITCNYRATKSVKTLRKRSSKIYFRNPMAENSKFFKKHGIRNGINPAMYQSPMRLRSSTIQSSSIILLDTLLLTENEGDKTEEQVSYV
Chain of C-C chemokine receptor type 2 (P41597 whole entry): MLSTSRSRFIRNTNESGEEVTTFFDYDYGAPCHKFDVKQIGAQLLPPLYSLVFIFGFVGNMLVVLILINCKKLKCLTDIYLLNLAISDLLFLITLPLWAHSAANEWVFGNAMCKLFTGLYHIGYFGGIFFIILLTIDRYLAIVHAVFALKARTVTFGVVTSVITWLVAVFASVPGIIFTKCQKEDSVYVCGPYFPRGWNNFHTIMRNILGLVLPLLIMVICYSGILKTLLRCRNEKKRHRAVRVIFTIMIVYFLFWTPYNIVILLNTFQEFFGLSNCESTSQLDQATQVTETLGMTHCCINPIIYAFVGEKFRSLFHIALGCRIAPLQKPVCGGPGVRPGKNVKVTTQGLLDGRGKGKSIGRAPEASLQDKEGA

C=C1CC[C@H](O)C/C1=C/C=C1\CCC[C@]2(C)[C@@H]([C@H](C)CCCC(C)C)CC[C@@H]12 [CHOLECALCIFEROL]
Not Active: IC50 [1] | IC50 [2] | Ki [2] | IC50 [3] | Ki [3] | IC50 [4] | IC50 [5] | IC50 [6] | Ki [6] | IC50 [7] | Ki [7]

C[N+](C)(C)CCO.[Cl-] [CHOLINE CHLORIDE]
Not Active: IC50 [1] | IC50 [2] | Ki [2] | IC50 [3] | Ki [3] | IC50 [4] | IC50 [5] | IC50 [6] | Ki [6] | IC50 [7] | Ki [7]

CCOC(=O)C(C)(C)Oc1ccc(Cl)cc1 [CLOFIBRATE]
Not Active: IC50 [1] | IC50 [2] | Ki [2] | IC50 [3] | Ki [3] | IC50 [4] | IC50 [5] | IC50 [6] | Ki [6] | IC50 [7] | Ki [7]

CC(=O)OCC(=O)[C@@]1(O)CC[C@H]2[C@@H]3CCC4=CC(=O)CC[C@]4(C)[C@H]3C(=O)C[C@@]21C [CORTISONE ACETATE]
Not Active: IC50 [1] | IC50 [2] | Ki [2] | IC50 [3] | Ki [3] | IC50 [4] | IC50 [5] | IC50 [6] | Ki [6] | IC50 [7] | Ki [7]

O=c1ccc2ccccc2o1 [COUMARIN]
Not Active: Ki [1] | IC50 [2] | Ki [2] | IC50 [3] | Ki [3] | IC50 [4] | IC50 [5] | IC50 [6] | Ki [6] | IC50 [7] | Ki [7]

C[C@@H]1C[C@@H]([C@H](O)CC2CC(=O)NC(=O)C2)C(=O)[C@@H](C)C1 [CYCLOHEXIMIDE]
Not Active: IC50 [1] | IC50 [2] | Ki [2] | IC50 [3] | Ki [3] | IC50 [4] | IC50 [5] | IC50 [6] | Ki [6] | IC50 [7] | Ki [7]

C/C=C/C[C@@H](C)[C@@H](O)[C@H]1C(=O)N[C@@H](CC)C(=O)N(C)CC(=O)N(C)[C@@H](CC(C)C)C(=O)N[C@@H](C(C)C)C(=O)N(C)[C@@H](CC(C)C)C(=O)N[C@@H](C)C(=O)N[C@H](C)C(=O)N(C)[C@@H](CC(C)C)C(=O)N(C)[C@@H](CC(C)C)C(=O)N(C)[C@@H](C(C)C)C(=O)N1C [CYCLOSPORINE]
Not Active: IC50 [1] | IC50 [2] | Ki [2] | IC50 [3] | Ki [3] | IC50 [4] | IC50 [5] | IC50 [6] | Ki [6] | IC50 [7] | Ki [7]

CN(C)/N=N/c1[nH]cnc1C(N)=O [DACARBAZINE]
Not Active: IC50 [1] | IC50 [2] | Ki [2] | IC50 [3] | Ki [3] | IC50 [4] | IC50 [5] | IC50 [6] | Ki [6] | IC50 [7] | Ki [7]

COc1ccc2c(c1)[C@]13CCCC[C@@H]1[C@H](C2)N(C)CC3 [DEXTROMETHORPHAN]
Not Active: IC50 [1] | IC50 [2] | Ki [2] | IC50 [3] | Ki [3] | IC50 [4] | IC50 [5] | IC50 [6] | Ki [6] | IC50 [7] | Ki [7]

CC(=O)Nc1c(I)c(NC(C)=O)c(I)c(C(=O)O)c1I [DIATRIZOIC ACID]
Not Active: IC50 [1] | IC50 [2] | Ki [2] | IC50 [3] | Ki [3] | IC50 [4] | IC50 [5] | IC50 [6] | Ki [6] | IC50 [7] | Ki [7]

COP(=O)(OC)OC=C(Cl)Cl [DICHLORVOS]
Not Active: IC50 [1] | IC50 [2] | Ki [2] | IC50 [3] | Ki [3] | IC50 [4] | IC50 [5] | IC50 [6] | Ki [6] | IC50 [7] | Ki [7]

O=C(O)Cc1ccccc1Nc1c(Cl)cccc1Cl [DICLOFENAC]
Not Active: IC50 [1] | IC50 [2] | Ki [2] | IC50 [3] | Ki [3] | IC50 [4] | IC50 [5] | IC50 [6] | Ki [6] | IC50 [7] | Ki [7]

C[C@H]1O[C@@H](O[C@H]2[C@@H](O)C[C@H](O[C@H]3[C@@H](O)C[C@H](O[C@H]4CC[C@@]5(C)[C@H](CC[C@@H]6[C@@H]5CC[C@]5(C)[C@@H](C7=CC(=O)OC7)CC[C@]65O)C4)O[C@@H]3C)O[C@@H]2C)C[C@H](O)[C@@H]1O [DIGITOXIN]
Not Active: IC50 [1] | IC50 [2] | Ki [2] | IC50 [3] | Ki [3] | IC50 [4] | IC50 [5] | IC50 [6] | Ki [6] | IC50 [7] | Ki [7]

CCN1CC(CCN2CCOCC2)C(c2ccccc2)(c2ccccc2)C1=O (stereo not given) [DOXAPRAM]
Not Active: IC50 [1] | IC50 [2] | Ki [2] | IC50 [3] | Ki [3] | IC50 [4] | IC50 [5] | IC50 [6] | Ki [6] | IC50 [7] | Ki [7]

Cn1c(=O)c2c(ncn2CC2OCCO2)n(C)c1=O [DOXOFYLLINE]
Not Active: IC50 [1] | IC50 [2] | Ki [2] | IC50 [3] | Ki [3] | IC50 [4] | IC50 [5] | IC50 [6] | Ki [6] | IC50 [7] | Ki [7]
